Test [1] has as its system tamoxifen-treated Tbx5^minKCreERT2 and Tbx5^fl/fl mice. The experiment in a line: Invasive EP studies (intracardiac recordings) following atropine administration. Type of test: in vivo, mouse. The note with it: for AH (AtrioHisian interval) / HV (Hisioventricular interval) / Hd (His interval duration) / SCL (sinus cycle length): Post-Atropine (20 mg/kg), Mean +/- SD. As to the method:
Electrophysiology Studies. Electrophysiology studies were performed in collaboration with Fang Liu, Kurt Schillinger, and Vic Patel at The University of Pennsylvania. Detailed protocols for in vivo electrophysiology studies have been previously described (Liu, et al., 2008). 10-12 week old mice were anesthetized with pentobarbital (33 mg/kg ip) and a 1.1-Fr octapolar electrode catheter (Millar; EPR-800) was advanced via a right jugular venous cut-down to record right atrial, His bundle, right ventricular potentials and perform programmed electrical stimulation. For studies involving atropine, surface ECG and intracardiac recordings were obtained, then repeated after mice were injected with 20 mg/kg atropine.
The autonomic nervous system can play an important role in modulating cardiac conduction. Specifically, activation of the sympathetic nervous system can increase heart rate, contractility, and accelerate conduction through the AV node, while parasympathetic stimulation via the vagus nerve can act at the SA and AV nodes to decrease heart rate and slow AV conduction. To determine whether slowed conduction in Tbx5^minkCreERT2 mice was secondary to increased vagal tone, the inventors administered atropine, a cholinergic antagonist, to tamoxifen-treated Tbx5^minKCreERT2 and Tbx5^fl/fl mice and evaluated conduction intervals by EP studies.

Test [2] deals with Mice with hyperactivation of Nav1.8. The note with it: cited from earlier work.
Test [3] has as its system Nav1.8. To be noted: after administration of A-803467; cited from earlier work.
The target in test [4] is Nav1.8 (Homo sapiens, UniProt Q9Y5Y9). The note with it: at the dose used; cited from earlier work.
Chain of Nav1.8 (Homo sapiens, UniProt Q9Y5Y9) (Q9Y5Y9 whole entry): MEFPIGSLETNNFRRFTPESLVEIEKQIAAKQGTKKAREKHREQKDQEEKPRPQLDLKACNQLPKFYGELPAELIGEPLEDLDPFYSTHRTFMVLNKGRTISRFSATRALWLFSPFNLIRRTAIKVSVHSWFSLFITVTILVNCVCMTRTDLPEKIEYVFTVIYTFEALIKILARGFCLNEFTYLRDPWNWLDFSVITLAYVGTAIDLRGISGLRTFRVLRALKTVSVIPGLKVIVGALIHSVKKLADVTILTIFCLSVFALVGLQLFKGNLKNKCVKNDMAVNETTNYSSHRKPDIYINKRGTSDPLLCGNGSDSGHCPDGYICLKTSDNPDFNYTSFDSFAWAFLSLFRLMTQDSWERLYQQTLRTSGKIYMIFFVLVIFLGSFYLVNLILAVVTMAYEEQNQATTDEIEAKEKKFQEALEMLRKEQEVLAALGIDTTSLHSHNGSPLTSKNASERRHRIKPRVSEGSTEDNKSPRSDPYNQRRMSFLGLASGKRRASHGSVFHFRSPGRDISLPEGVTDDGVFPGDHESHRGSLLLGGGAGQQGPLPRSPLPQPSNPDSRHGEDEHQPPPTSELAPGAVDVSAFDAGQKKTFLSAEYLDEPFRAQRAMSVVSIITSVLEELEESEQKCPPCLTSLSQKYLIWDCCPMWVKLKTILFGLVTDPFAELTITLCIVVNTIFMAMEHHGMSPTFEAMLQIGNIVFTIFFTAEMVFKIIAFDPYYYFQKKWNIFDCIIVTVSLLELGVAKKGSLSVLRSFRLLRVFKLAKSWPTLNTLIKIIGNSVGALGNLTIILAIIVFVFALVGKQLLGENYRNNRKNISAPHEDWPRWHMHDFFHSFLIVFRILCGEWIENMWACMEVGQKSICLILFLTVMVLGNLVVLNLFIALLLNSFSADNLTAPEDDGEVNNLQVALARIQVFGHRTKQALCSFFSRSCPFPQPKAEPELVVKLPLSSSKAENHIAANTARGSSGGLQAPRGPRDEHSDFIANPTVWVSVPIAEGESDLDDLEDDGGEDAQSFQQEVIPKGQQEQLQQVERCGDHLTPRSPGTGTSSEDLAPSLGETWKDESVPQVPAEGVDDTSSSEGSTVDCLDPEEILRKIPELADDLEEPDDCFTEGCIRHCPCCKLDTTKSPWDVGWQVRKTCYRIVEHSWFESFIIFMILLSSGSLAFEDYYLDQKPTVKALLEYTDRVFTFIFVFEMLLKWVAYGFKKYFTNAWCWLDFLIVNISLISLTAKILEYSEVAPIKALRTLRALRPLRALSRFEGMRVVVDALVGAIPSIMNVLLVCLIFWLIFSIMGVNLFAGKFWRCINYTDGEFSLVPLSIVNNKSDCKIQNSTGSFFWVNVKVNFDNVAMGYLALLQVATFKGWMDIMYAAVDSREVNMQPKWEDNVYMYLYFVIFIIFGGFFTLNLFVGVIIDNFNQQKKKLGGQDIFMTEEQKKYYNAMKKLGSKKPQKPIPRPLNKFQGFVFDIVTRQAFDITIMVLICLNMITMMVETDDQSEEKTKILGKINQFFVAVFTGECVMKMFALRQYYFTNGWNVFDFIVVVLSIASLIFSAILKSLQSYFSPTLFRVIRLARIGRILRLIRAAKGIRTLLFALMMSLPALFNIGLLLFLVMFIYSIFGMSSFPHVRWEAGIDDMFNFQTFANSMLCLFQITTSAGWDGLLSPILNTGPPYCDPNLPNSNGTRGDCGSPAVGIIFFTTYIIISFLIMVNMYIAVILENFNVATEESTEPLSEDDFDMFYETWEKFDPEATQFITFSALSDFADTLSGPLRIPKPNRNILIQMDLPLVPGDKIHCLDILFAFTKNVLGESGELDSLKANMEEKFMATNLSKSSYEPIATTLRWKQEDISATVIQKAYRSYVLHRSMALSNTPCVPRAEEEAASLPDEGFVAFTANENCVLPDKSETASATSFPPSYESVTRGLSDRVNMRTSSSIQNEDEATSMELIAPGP

Here are results for two molecules from US20150164957A1, “CONVERSION OF CARDIOMYOCYTES INTO FAST CONDUCTING CARDIOMYOCYTES OR SLOW CONDUCTING NODAL CELLS” (The University of Chicago, priority 2012, published 2015).

Consider `CN1[C@@H]2CC[C@H]1C[C@@H](OC(=O)C(CO)c1ccccc1)C2` (some centres unmarked) [Atropine, atropine], for which, in test [1] (Tbx5^fl/fl mice (n = 3)), the “AH (AtrioHisian interval)” value was 28.0 ± 9.9 ms, the “HV (Hisioventricular interval)” value amounted to 9.0 ± 3.2 ms, the “Hd (His interval duration)” value is 3.7 ± 1.5 ms and the “SCL (sinus cycle length)” value turned out to be 141.3 ± 30.9 ms. In addition, in test [1] (Tbx5^minKCreERT2 mice (n = 3)), the “AH (AtrioHisian interval)” value was 35.7 ± 3.6 ms, the “HV (Hisioventricular interval)” value amounted to 26.0 ± 2.4 ms, the “Hd (His interval duration)” value is 11.7 ± 2.5 ms and the “SCL (sinus cycle length)” value was 146.3 ± 11.6 ms. The “Effect of cholinergic blockade on conduction” value in test [1] (Tbx5^minKCreERT2 or Tbx5^fl/fl mice, EP studies) is “did not result in accelerated conduction”. In addition, in test [2], the “Effect on sinus bradycardia following scruffing” value is “blocked”.
`COc1cc(NC(=O)c2ccc(-c3ccc(Cl)cc3)o2)cc(OC)c1` [A-803467]: in the test on Nav1.8 [3], the H-V interval entry is given as “increased”, the P-R interval entry is reported as “increased” and the QRS interval entry was “increased”. For the same molecule, the “Activity against Nav1.8 relative to Nav1.5” value on Nav1.8 [4] is 100 fold.
